Here are results for 5 molecules from patent US8409595B2, “Method for decreasing sebum production” (Medicis Pharmaceutical Corporation, priority 2003, dated 2013).

One assay deals with sebum secretion. Particulars: in vivo; cited from earlier work.
The test system of assay [1] is sebaceous glands of Syrian hamster ears. Put plainly: Syrian hamster ear model of sebum secretion, HPLC of cholesterol ester and wax ester. It is filed as in vivo. The conditions noted are these: topical 1 w/v %, 4 weeks; for % Reduction in CE, change vs. relevant vehicle control: cholesterol ester; for % Reduction in CE, change vs. relevant vehicle control / % Reduction in WE, change vs. relevant vehicle control: twice daily, five days a week, right ear, negative = increase; for Sum CE + WE, change vs. relevant vehicle control: summation of % reduction in CE and in WE; for % Reduction in WE, change vs. relevant vehicle control: wax ester. The protocol:
Luderschmidt et al describes an animal model for testing whether compounds are capable of modulating sebum secretion. Arch. Derm. Res. 258, 185-191 (1977). This model uses Syrian hamsters, whose ears contain sebaceous glands. Compounds can be administered to these animals to determine if a test agent is capable of modulating sebum production
Testing for sebum inhibition was carried out in the following manner. Male Syrian hamsters aged 9 to 10 weeks were introduced into the laboratory environment and acclimated for 2 weeks prior to use in the study. Each group consisted of 5 animals and were run in parallel with vehicle and positive controls. Prior to administration, 10 mg of each compound was dissolved in 1 mL of Universal solvent (ethanol/propylene glycol (70/30% v/v) to achieve a final concentration of 1 w/v %.
Animals were dosed topically twice daily, five days a week, for 4 weeks. Each dose consisted of 25 micro liters of vehicle control or drug. The dose was applied to the ventral surfaces of both the right and left ears. All animals were sacrificed approximately 18-24 hours after the final dose. The right ears were collected from each animal and used for sebum analysis.
The ears were prepped for HPLC analysis in the following manner. One 8 mm distal biopsy punch was taken, just above the anatomical “V” mark in the ear to normalize the sample area. The punch was pulled apart. The ventral biopsy surface (the area where the topical dose was directly applied to the sebaceous glands) was retained for testing and the dorsal surface of the biopsy punch was discarded.
Tissue samples were blown with N2 gas and stored at −80° C. under nitrogen until HPLC analysis. In addition to ear samples, an aliquot of each drug and vehicle (at least 250 ul) was also stored at −80° C. for inclusion in the HPLC analysis.
HPLC analysis was carried out on an extract of the tissue sample. Tissue samples were contacted with 3 ml of solvent (a 4:1 admixture of 2,2,4-trimethylpentane and isopropyl alcohol). The mixture was shaken for 15 minutes and stored overnight at room temperature, protected from light. The next morning 1 milliliter of water was added to the sample and shaken for 15 minutes. The sample was then centrifuged at approximately 1500 rpm for 15 minutes. Two ml of the organic phase (top layer) was transferred to a glass vial, dried at 37° C., under nitrogen, for approximately 1 hour, and then lyophilized for approximately 48 hours. The samples were then removed from the lyophilizer and each vial was reconstituted with 600 μl of solvent A (trimethylpentane/tetrahydrofuran (99:1). The samples were then recapped and vortexed for 5 minutes.
200 μl of each sample was then transferred to a pre-labeled 200 μl HPLC vial with 200 μL glass inserts. The HPLC vials were placed in the autosampler tray for the Agilent 1100 series HPLC unit. The Agilent 1100 HPLC system consisted of a thermostated autosampler, a quarternary pump, a column heater, and an A/D interface module. All components were controlled by Agilent ChemStation software. A Waters Spherisorb S3W 4.6×100 mm analytical column was maintained at 30° C. by the Agilent column heater unit. The HPLC autosampler was programmed to maintain the sample temperature at 20° C. throughout the run.
10 uL of each sample was injected in triplicate into the column. Two solvents were used for the solvent gradient. Solvent A was an admixture of trimethylpentane and tetrahydrofuran (99:1). Solvent B was ethylacetate. The gradient utilized is described in the table below: […]
The Sedex 75 Evaporative Light Scattering Detector (ELSD) was operated at 45° C. with a gain of 5, and N2 pressure maintained at 3.1 bar. Analog signal obtained by the instrument was sent to the Agilent A/D interface module where it was converted to a digital output. The conversion was based on a 10000 mAU/volt set point and the data rate was set at 10 Hz (0.03 min). […]

For `CC1=C(/C=C/C(C)=C/C=C/C(C)=C\C(=O)O)C(C)(C)CCC1` [Accutane, isotretinoin], the “reduction of sebum secretion” value with sebum secretion is “up to 90%”.

Regarding `CC(C)c1cccc(C(C)C)c1NC(=O)NCC1(c2ccccc2)CC1` [Compound 28], in assay [1], the “% Reduction in CE, change vs. relevant vehicle control” value is reported as 0%; the “Sum CE + WE, change vs. relevant vehicle control” value is reported as −8%; the “% Reduction in WE, change vs. relevant vehicle control” value is −8%.

Consider `CC(=O)OC(C(=O)N(CC(=O)Nc1c(C(C)C)cccc1C(C)C)Cc1ccccc1)c1ccccc1` (stereo not shown) [Compound 29], for which, in assay [1], the “% Reduction in CE, change vs. relevant vehicle control” value turned out to be 19%; the “Sum CE + WE, change vs. relevant vehicle control” value stood at 30%; the “% Reduction in WE, change vs. relevant vehicle control” value is listed as 11%.

Consider `COc1cccc2c1CCC(NC(=O)Nc1c(C(C)C)cccc1C(C)C)C2` (stereo not shown) [Compound 30], for which, in assay [1], the “% Reduction in CE, change vs. relevant vehicle control” value was −10%; the “Sum CE + WE, change vs. relevant vehicle control” value was −44%; the “% Reduction in WE, change vs. relevant vehicle control” value is reported as −34%.

Regarding `CC(C)c1cccc(C(C)C)c1NC(=O)NCCc1c[nH]c2ccccc12` [Compound 31], in assay [1], the “% Reduction in CE, change vs. relevant vehicle control” value was 9%; the “Sum CE + WE, change vs. relevant vehicle control” value was determined as 18%; the “% Reduction in WE, change vs. relevant vehicle control” value is 9%.
